Laboratory results reported in ChEMBL document CHEMBL1921760, “Design, synthesis and biological evaluation of 6-pyridylmethylaminopurines as CDK inhibitors” (Bioorg Med Chem, 2011).
pIC50: −log10 of the molar value.

Columns and labels:
[1] = tested on: A2780; assay: Growth inhibition of cisplatin-susceptible human A2780 cells after 96 hrs by sulforhodamine B assay; format: functional; details: A2780, 96 h
[2] = Metabolic stability in mouse liver microsomes assessed as compound metabolized at 10 uM after 30 mins by LC-MS analysis; format: ADME, Microsome; details: read-out: Activity
[3] = tested on: HCT-116; assay: Growth inhibition of human HCT116 cells after 96 hrs by sulforhodamine B assay; format: functional; details: HCT-116, 96 h
[4] = tested on: HT-29; assay: Growth inhibition of human HT-29 cells after 96 hrs by sulforhodamine B assay; format: functional; details: HT-29, 96 h
[5] = target: Mitogen-activated protein kinase 1 (Homo sapiens, UniProt P28482); assay: Inhibition of ERK2
Mitogen-activated protein kinase 1, sequence (P28482 whole entry): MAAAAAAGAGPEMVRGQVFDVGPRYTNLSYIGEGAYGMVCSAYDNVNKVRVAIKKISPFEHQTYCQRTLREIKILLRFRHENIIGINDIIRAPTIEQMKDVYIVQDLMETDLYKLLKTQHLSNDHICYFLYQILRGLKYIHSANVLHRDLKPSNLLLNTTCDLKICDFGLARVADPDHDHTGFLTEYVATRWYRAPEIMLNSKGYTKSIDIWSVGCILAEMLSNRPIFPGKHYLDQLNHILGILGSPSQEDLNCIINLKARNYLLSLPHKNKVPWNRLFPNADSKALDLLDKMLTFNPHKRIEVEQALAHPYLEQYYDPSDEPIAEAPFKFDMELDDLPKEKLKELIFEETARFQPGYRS

[6] = tested on: KM12; assay: Growth inhibition of human KM12 cells after 96 hrs by sulforhodamine B assay; format: functional; details: KM12, 96 h
[7] = Inhibition of PKA
[8] = tested on: CH1; assay: Growth inhibition of doxorubicin-resistant human CH1 cells after 96 hrs by sulforhodamine B assay; format: functional; details: CH1, 96 h
[9] = tested on: CH1; assay: Growth inhibition of doxorubicin-susceptible human CH1 cells after 96 hrs by sulforhodamine B assay; format: functional; details: CH1, 96 h
[10] = tested on: A2780; assay: Growth inhibition of cisplatin-resistant human A2780 cells after 96 hrs by sulforhodamine B assay; format: functional; details: A2780, 96 h
[11] = target: Cyclin-dependent kinase 4/cyclin D1 (Homo sapiens, UniProt P11802); assay: Inhibition of CDK4/cyclin D1; format: protein-complex assay
Cyclin-dependent kinase 4/cyclin D1, sequence (P11802 whole entry): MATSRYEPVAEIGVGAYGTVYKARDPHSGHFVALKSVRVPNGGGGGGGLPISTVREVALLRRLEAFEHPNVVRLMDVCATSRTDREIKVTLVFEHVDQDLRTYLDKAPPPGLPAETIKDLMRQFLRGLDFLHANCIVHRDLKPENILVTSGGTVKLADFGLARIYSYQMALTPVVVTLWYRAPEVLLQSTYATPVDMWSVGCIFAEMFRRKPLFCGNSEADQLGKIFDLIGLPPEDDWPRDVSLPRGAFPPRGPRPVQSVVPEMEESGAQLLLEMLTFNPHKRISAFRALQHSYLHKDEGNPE
Cyclin-dependent kinase 4/cyclin D1, sequence (P24385 whole entry, further chain): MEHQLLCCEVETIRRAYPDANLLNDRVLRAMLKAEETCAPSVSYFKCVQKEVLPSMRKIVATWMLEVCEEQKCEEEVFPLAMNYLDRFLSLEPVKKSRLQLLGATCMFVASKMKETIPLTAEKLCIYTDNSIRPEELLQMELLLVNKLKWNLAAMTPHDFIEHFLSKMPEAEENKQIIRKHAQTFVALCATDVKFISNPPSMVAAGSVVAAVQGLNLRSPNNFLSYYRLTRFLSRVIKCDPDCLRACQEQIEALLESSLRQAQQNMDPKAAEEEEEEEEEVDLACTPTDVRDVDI

[12] = target: Cyclin-dependent kinase 1/cyclin B1 (Homo sapiens, UniProt P06493); assay: Inhibition of CDK1/cyclin B; format: protein-complex assay
Cyclin-dependent kinase 1/cyclin B1, sequence (P06493 whole entry): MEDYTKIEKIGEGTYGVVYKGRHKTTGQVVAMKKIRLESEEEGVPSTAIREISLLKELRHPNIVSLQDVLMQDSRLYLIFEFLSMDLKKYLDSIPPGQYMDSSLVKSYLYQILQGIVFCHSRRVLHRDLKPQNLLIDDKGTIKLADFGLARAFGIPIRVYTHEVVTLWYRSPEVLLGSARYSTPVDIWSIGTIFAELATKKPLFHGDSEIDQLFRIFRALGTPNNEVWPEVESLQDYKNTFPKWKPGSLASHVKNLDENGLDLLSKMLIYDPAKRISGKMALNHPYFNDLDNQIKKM
Cyclin-dependent kinase 1/cyclin B1, sequence (P14635 whole entry, further chain): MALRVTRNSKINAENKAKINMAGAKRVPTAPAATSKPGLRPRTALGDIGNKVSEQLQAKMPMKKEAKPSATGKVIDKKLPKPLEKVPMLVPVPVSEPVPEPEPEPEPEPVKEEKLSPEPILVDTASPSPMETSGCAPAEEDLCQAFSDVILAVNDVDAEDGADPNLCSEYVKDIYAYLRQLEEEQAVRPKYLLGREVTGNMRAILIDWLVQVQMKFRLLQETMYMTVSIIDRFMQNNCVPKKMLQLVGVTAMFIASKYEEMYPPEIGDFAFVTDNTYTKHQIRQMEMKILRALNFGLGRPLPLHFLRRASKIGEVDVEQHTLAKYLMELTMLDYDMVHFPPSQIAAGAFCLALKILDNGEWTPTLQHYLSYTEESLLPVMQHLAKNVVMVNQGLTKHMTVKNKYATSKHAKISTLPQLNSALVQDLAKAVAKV

[13] = target: Cyclin-dependent kinase 7/ cyclin H (Homo sapiens, UniProt P50613); assay: Inhibition of CDK7/cyclin H; format: protein-complex assay
Cyclin-dependent kinase 7/ cyclin H, sequence (P51946 whole entry): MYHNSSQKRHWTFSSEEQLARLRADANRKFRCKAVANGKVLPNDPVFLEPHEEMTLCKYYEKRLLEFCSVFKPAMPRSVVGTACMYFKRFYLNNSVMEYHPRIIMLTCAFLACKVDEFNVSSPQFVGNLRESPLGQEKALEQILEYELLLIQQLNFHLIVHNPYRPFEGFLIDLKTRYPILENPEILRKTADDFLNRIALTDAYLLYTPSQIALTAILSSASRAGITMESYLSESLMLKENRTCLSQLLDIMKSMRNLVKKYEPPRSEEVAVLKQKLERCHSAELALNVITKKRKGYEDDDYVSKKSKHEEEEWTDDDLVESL
Cyclin-dependent kinase 7/ cyclin H, sequence (P50613 whole entry): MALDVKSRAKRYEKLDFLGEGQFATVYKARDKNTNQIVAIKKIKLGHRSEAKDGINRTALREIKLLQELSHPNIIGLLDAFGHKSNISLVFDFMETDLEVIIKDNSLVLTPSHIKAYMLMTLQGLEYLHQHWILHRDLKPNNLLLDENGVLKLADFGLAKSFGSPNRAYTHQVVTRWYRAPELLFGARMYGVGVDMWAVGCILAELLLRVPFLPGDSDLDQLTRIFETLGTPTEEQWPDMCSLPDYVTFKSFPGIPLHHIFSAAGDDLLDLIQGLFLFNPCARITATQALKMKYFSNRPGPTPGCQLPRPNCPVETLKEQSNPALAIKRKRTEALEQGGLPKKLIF

| SMILES | GI50 [1] [µM] | metabolised at 0.5 h, 10 µM [2] [%] | GI50 [3] [µM] | GI50 [4] [µM] | pIC50 [5] | GI50 [6] [µM] | pIC50 [7] | GI50 [8] [µM] | GI50 [9] [µM] | GI50 [10] [µM] | pIC50 [11] | pIC50 [12] | pIC50 [13] |
| --- | --- | --- | --- | --- | --- | --- | --- | --- | --- | --- | --- | --- | --- |
| CC[C@@H](Nc1nc(NCc2ccccc2)c2ncn(C(C)C)c2n1)C(O)C(C)(C)C (mixture of isomers) | 18.5 | 79 | 24 | 14.5 | < 3.70 | 17 | 4.06 | 19 | 23 | 23 | 3.70 | – | – |
| CC[C@@H](Nc1nc(NCc2ccccn2)c2ncn(C(C)C)c2n1)C(O)C(C)(C)C (mixture of isomers) | 23 | 93 | 29 | 34 | – | 45 | < 3.70 | 27 | 34 | > 50 | – | 3.70 | – |
| CC[C@H](Nc1nc(NCc2ccccc2)c2ncn(C(C)C)c2n1)C(C)O (mixture of isomers) | 3.3 | 67 | 1.45 | 4.9 | 4.54 | 1.9 | < 4.30 | 1.28 | 1.75 | 3.4 | 5.05 | – | 6.16 |
| CCC(O)[C@H](CC)Nc1nc(NCc2ccccn2)c2ncn(C(C)C)c2n1 (mixture of isomers) | 21 | 85 | 29 | > 50 | – | > 50 | < 3.70 | 26 | 33 | 23 | – | – | – |
| CC[C@H](CO)Nc1nc(NCc2ccncc2)c2ncn(C(C)C)c2n1 | 23 | 3 | 10 | 23 | – | 7 | < 4.30 | – | 8.2 | 22 | – | – | – |
| CC[C@@H](Nc1nc(NCc2ccccn2)c2ncn(C(C)C)c2n1)C(C)(C)O | 34 | 73 | > 50 | > 50 | – | > 50 | < 3.70 | > 50 | > 50 | > 50 | – | – | – |
| CC[C@@H](Nc1nc(NCc2ccccc2)c2ncn(C(C)C)c2n1)C(O)C(C)C (mixture of isomers) | 17 | 83 | 22 | 13 | < 3.70 | 27 | 4.04 | 19 | 23 | 21 | – | – | – |
| CC[C@H](Nc1nc(NCc2ccccn2)c2ncn(C(C)C)c2n1)C(O)C(C)(C)C (mixture of isomers) | 38 | 97 | > 50 | 28 | – | 36 | < 3.70 | 47 | > 50 | > 50 | – | 3.70 | – |
| CC[C@H](Nc1nc(NCc2ccccc2)c2ncn(C(C)C)c2n1)C(O)C(C)(C)C (mixture of isomers) | 21.5 | 74 | 27 | 21.5 | < 3.70 | 19 | < 3.70 | 21.5 | 26 | 23 | – | – | – |
| CCC(O)[C@H](CC)Nc1nc(NCc2ccccc2)c2ncn(C(C)C)c2n1 (mixture of isomers) | 16 | 67 | 20 | 23 | – | 27 | < 3.70 | – | – | 21 | 4.70 | – | 5.96 |
| CCC(O)[C@@H](CC)Nc1nc(NCc2ccccc2)c2ncn(C(C)C)c2n1 (mixture of isomers) | 14.5 | 63 | 26 | 23 | – | 23 | 3.86 | 18 | 23 | 21 | – | – | – |
| CCC(O)[C@@H](CC)Nc1nc(NCc2ccccn2)c2ncn(C(C)C)c2n1 (mixture of isomers) | 22 | 88 | 29 | > 50 | – | 45 | < 3.70 | 26 | 27 | 40 | – | – | – |
| CC[C@H](Nc1nc(NCc2ccccn2)c2ncn(C(C)C)c2n1)C(O)C(C)C (mixture of isomers) | 35 | 23 | > 50 | > 50 | – | > 50 | < 3.70 | > 50 | > 50 | > 50 | – | 3.70 | – |
| CC[C@@H](Nc1nc(NCc2ccccn2)c2ncn(C(C)C)c2n1)C(O)C(C)C (mixture of isomers) | 40 | 94 | > 50 | > 50 | – | > 50 | < 3.70 | > 50 | > 50 | > 50 | – | – | – |
| CC[C@H](CO)Nc1nc(NCc2ccccn2)c2ncn(C(C)C)c2n1 | 21.5 | – | 26 | 54 | – | 38 | < 4.30 | 23 | 26 | 28 | 5.42 | – | 7.40 |
| CC[C@H](Nc1nc(NCc2ccccc2)c2ncn(C(C)C)c2n1)C(C)(C)O | 16 | 73 | 16 | 23 | – | 20 | 3.70 | – | 22 | 22 | – | – | – |
| CC[C@@H](Nc1nc(NCc2ccccc2)c2ncn(C(C)C)c2n1)C(C)(C)O | 15 | 52 | 20 | 23 | – | 21 | 3.72 | 19.5 | 23 | 23 | – | – | – |
| CC[C@H](Nc1nc(NCc2ccccc2)c2ncn(C(C)C)c2n1)C(O)C(C)C (mixture of isomers) | 20 | 76 | 24 | 23 | 4.06 | 25 | 4.08 | 24 | 25 | 23 | 4.48 | – | 5.52 |
| CC[C@H](CO)Nc1nc(NCc2cccnc2)c2ncn(C(C)C)c2n1 | 5.2 | 54 | 4.5 | 5.8 | 4.62 | 5.5 | < 4.30 | 16.5 | 4.8 | 6.6 | 4.70 | – | 6.74 |
